From patent US5077292A, “(2-imidazolin-2-ylamino) tetrahydroquinoxalines and methods for using same” (priority 1989, dated 1991)

Assays:
intraocular pressure = test: effect on intraocular pressure, topical unilateral administration to rabbit eye; format: in vivo, New Zealand white rabbit; conditions: 0.1% (W/V), treated rabbit eye
Description: The three (3) tetrahydroquinoxaline derivatives produced in accordance with Examples 1 to 3 were tested to determine what effect, if any, these materials have on intraocular pressure.
Each of these materials was dissolved in distilled water at a concentration of 0.1% (W/V). Each of these solutions was administered topically and unilaterally to one eye of a drug-naive, unanesthetized New Zealand white rabbit in a single 50 micro liter drop. The contralateral eye received an equal volume of saline prior to determining the intraocular pressure after the mixture was administered. Also, approximately 10 micro liters of 0.5% (W/V) proparacaine (topical anesthetic) was applied to the corneas of each of the rabbits before determining intraocular pressure. As a control test, six (6) other drug-naive, unanesthetized New Zealand white rabbits were treated and tested as described above except that no tetrahydroquinoxaline derivative was included in the solutions administered to the eyes.
The intraocular pressure was determined in both eyes of each rabbit before and after the solutions were administered. Such intraocular pressure determinations were made in the conventional manner using conventional equipment.

[1] = test system: Alpha 1 Adrenergic Receptors; test: Rabbit Aorta: Alpha 1 Adrenergic Receptors; format: cell-based, albino rabbit; conditions: rabbit aorta rings, 37° C., field stimulated; n = number of test runs
Description: The tetrahydroquinoxalines produced in Examples 1 to 3 were tested for activity using the following in vitro methods.
Rabbit Aorta: Alpha 1 Adrenergic Receptors
Thoracic aorta and saphenous vein specimens were obtained from albino rabbits that were killed by CO2 inhalation. The aorta and saphenous vein were each cut into 3 mm rings. Tissues were placed in Krebs-Hensleit solution of the following composition (millimolar): NaCl 119; KCl 4.7; MgSO4 1.5, KH2 PO4 1.2; CaCl2 2.5; NaHCO3 25 and glucose 11.0. The solution also contained cocaine (0.1 millimolar) to block neuronal uptake and EDTA (30 micromolar) and ascorbic acid (5 micromolar) to prevent oxidation of the tetrahydroquinoxaline being tested. Tissues were hung in 10 ml organ baths and tension was measured via Grass FT03 force-displacement transducers. Resting tension was 1 g and 2 g for the saphenous vein and aorta, respectively. The solution was gassed with 95% O2 and 5% CO2 and maintained at 37° C. Tissues were allowed to equilibrate for 2 hours before stimulation and the cumulative addition of the tetrahydroquinoxaline being treated was started. Tissue stimulation was performed as with the rabbit vas deferens, described above. The contractions of the tissue were recorded isometrically as for the rabbit vas deferens assay. Cumulative concentration response curves were obtained and the EC50 valve developed for each tetrahydroquinoxaline tested in a manner similar to that for the rabbit vas deferens assay.

[2] = test system: mean arterial blood pressure; test: blood pressure effects (MAP) in renal test, intraduodenal administration; format: in vivo, Sprague-Dawley rats; conditions: test run 3 times
Description: The tetrahydroquinoxaline produced in Example 1 was tested for renal and blood pressure effects using the following method.
Young male (20-24 weeks old) Sprague-Dawley rats were used. Under ketamine (60 mg/kg b.wt. i.m.) and pentobarbital (i.p. to effect) anesthesia, medical grade plastic tubes were implanted into the abdominal aorta and vena cava via the femoral vessels. In addition, a Silastic-covered stainless steel cannula were sewn in the urinary bladder. After the surgery, the rats were housed individually and were allowed free access to food and water until the day of the experiment.
For about 7 to 10 days before surgery and during recovery, the rats were accustomed to a restraining cage by placement in the cage for 2 to 3 hours every 2nd and 3rd day. The cage was designed for renal clearance studies (a model G Restrainer sold by Braintree Scientific, Inc., Braintree, Mass.). The animals' adjustment to the cage was judged by the stability of blood pressure and heart rate.
For an experiment, a rat was placed in the restraining cage, and the arterial line was connected to a Statham pressure transducer and a Beckman Dynograph R61 to monitor the mean arterial blood pressure, hereinafter referred to as MAP. […] The volume of urine was measured gravimetrically. Body weight was recorded before and after the experiment. […]

dmPGE2-induced diarrhea = test: anti-diarrheal effects in cecectomized rats, dmPGE2-induced diarrhea; format: in vivo; conditions: p.o.
Description: The tetrahydroquinoxaline produced in Example 1 was tested for anti-diarrheal effects and blood pressure effects using the following method.
Cecectomies were performed in unfasted rats as follows. Under anesthesia with methohexital (60 mg/kg. i.p.), a laparotyphlectomy was initiated with a 2 cm midventral incision. The cecum was lifted from the abdominal cavity and exteriorized onto a gauze drape. The cecal apex was freed by severing the avascular area of the mesocecum. Next, a ligature of #1 silk suture was positioned so as to occulude the cecum and its vasculature without compromising ileo-colonic patency. After the ligature was secured and ileo-colonic patency confirmed, the cecum was resected, and the remaining exposed cecal mucosa was washed with saline and cauterized. The intestinal segment was then returned to the abdominal cavity, and the abdominal muscle facia closed with interrupted 4/0 chromic-gut sutures. The dermal incision was closed with 9 mm stainless steel wound clips that were removed approximately 1 week post surgery. An arterial line was also implanted into the abdominal aorta and vena cava via the femoral vessels, in a manner similar to that described in Example 10. Immediately following the surgical procedure, animals were returned to their cages and allowed free access to food and water. Animals were permitted at least 48 hour recovery period before being used in experiments.
The cecectomized rats were put into individual wire-bottomed cages placed over sheets of clean paper, and deprived of food and water for the duration of the assay. The MAP was monitored, as described in Example 10, throughout the assay. Rats were given a 2 hour acclimatization period prior to the start of the assay in order to eliminate sporadic episodes of anxiety-induced defecation. During this period they were observed also for consistent occurrences of pelleted feces; an animal producing other than a pelleted stool was disqualified from the study.
Diarrhea was induced with oral administration of 16,16-dimethyl prostaglandin E2 (dmPGE2) in 3.5% EtOH. The tetrahydro-quinoxaline was administered by gavage after the onset of diarrheal episodes. The cage papers were removed and examined at 30 minute intervals for dmPGE2 -induced diarrhea. Fecal output was recorded at each interval and fecal consistency is assigned a numerical score in each experimental group as follows: 1=normal pelleted stool; 2=soft-formed stools; 3=water stool and/or diarrhea. The fecal output index (FOI) is defined as the summation of the number of defecation episodes and their ranked consistency score within an observation period.

SMILES: Brc1c(NC2=NCCN2)ccc2c1NCCN2 [Example 1, 5-Bromo-6-(2-imidazolin-2-ylamino)-1,2,3,4-tetrahydroquinoxaline]
- effect on intraocular pressure in the treated eye (in words) (intraocular pressure): effective to reduce intraocular pressure in the treated rabbit eye
- initial effect on intraocular pressure in the treated eye (in words) (intraocular pressure; initial effect): raising the intraocular pressure
- EC50 [1]: 1130 ± 207 nM
- Increase in MAP ([2]; 0.3 mg/kg): 2.5 mm Hg
- Increase in MAP ([2]; 1 mg/kg): 8 mm Hg
- Percent Reduction in FOI versus dmPGE2 Control (dmPGE2-induced diarrhea; 0.01 mg/kg): 17%
- Percent Reduction in FOI versus dmPGE2 Control (dmPGE2-induced diarrhea; 0.03 mg/kg): 60%
- Percent Reduction in FOI versus dmPGE2 Control (dmPGE2-induced diarrhea; 0.10 mg/kg): 57%
- Percent Reduction in FOI versus dmPGE2 Control (dmPGE2-induced diarrhea; 0.30 mg/kg): 76%
- Percent Reduction in FOI versus dmPGE2 Control (dmPGE2-induced diarrhea; 1.00 mg/kg): 98%
- Percent Reduction in FOI versus dmPGE2 Control (dmPGE2-induced diarrhea; 3.00 mg/kg): 98%
- Percent Reduction in FOI versus dmPGE2 Control (dmPGE2-induced diarrhea; 10.00 mg/kg): 100%
- anti-diarrheal effects (in words) (dmPGE2-induced diarrhea; cecectomized rats, dmPGE2-induced diarrhea): substantial anti-diarrheal effects
